Results from ChEMBL document CHEMBL3526083, “Prediction of relative in vivo metabolite exposure from in vitro data using two model drugs: dextromethorphan and omeprazole” (Drug Metab Dispos, 2012).

What was measured:
Liver microsome [1] = experiment: Drug metabolism in human liver microsomes assessed as 3-hydroxymorphinan formation measured as intrinsic clearance; type: ADME
[2] = target: T1, UDP-glucuronosyltransferase 2B7 (Homo sapiens, UniProt P16662); experiment: Drug metabolism assessed as recombinat UGT2B7 (unknown origin) -mediated dextrophan-O-glucuronide formation; type: ADME
T1 sequence (P16662 whole entry): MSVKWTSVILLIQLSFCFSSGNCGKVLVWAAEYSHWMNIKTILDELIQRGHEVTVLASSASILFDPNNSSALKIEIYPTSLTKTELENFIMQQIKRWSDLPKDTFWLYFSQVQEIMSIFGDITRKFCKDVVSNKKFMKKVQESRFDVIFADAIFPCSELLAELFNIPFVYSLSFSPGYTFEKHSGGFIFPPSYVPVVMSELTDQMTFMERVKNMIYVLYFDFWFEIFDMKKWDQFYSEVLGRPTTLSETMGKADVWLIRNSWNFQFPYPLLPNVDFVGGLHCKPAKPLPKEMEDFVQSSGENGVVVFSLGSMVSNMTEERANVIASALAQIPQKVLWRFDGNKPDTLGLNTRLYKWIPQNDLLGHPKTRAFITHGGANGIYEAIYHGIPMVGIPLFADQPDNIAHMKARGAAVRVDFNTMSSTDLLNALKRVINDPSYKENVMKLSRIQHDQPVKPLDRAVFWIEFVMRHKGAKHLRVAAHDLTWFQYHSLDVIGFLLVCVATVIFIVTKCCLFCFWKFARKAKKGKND

Liver microsome [3] = experiment: Drug metabolism in human liver microsomes assessed as dextrophan-O-glucuronide formation measured as plasma fraction unbound; type: ADME, cell-free
Liver microsome [4] = experiment: Drug metabolism in human liver microsomes assessed as dextrophan-O-glucuronide formation measured as intrinsic clearance in presence of 2% BSA; type: ADME
Liver microsome [5] = experiment: Drug metabolism in human liver microsomes assessed as dextrophan-O-glucuronide formation measured as intrinsic unbound clearance; type: ADME
[6] = target: T2, UDP-glucuronosyltransferase 2B4 (Homo sapiens, UniProt P06133); experiment: Drug metabolism assessed as recombinat UGT2B4 (unknown origin) -mediated dextrophan-O-glucuronide formation; type: ADME
T2 sequence (P06133 whole entry): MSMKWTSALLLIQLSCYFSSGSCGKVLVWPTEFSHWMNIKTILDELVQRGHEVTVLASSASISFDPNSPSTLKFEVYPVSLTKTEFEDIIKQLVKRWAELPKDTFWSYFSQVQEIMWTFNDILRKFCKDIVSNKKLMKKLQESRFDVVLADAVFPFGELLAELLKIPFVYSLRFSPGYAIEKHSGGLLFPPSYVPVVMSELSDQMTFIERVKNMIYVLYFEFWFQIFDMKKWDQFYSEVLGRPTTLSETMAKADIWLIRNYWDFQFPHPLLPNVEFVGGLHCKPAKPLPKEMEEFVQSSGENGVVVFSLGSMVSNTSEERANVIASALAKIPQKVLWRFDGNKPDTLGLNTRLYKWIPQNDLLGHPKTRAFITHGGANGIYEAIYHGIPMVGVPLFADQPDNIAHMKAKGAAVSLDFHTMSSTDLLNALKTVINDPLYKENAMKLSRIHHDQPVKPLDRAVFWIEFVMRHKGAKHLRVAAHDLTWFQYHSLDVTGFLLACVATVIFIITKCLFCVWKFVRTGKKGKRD

[7] = target: T3, UDP-glucuronosyltransferase 1A3 (Homo sapiens, UniProt P35503); experiment: Drug metabolism assessed as recombinat UGT1A3 (unknown origin) -mediated dextrophan-O-glucuronide formation; type: ADME
T3 sequence (P35503 whole entry): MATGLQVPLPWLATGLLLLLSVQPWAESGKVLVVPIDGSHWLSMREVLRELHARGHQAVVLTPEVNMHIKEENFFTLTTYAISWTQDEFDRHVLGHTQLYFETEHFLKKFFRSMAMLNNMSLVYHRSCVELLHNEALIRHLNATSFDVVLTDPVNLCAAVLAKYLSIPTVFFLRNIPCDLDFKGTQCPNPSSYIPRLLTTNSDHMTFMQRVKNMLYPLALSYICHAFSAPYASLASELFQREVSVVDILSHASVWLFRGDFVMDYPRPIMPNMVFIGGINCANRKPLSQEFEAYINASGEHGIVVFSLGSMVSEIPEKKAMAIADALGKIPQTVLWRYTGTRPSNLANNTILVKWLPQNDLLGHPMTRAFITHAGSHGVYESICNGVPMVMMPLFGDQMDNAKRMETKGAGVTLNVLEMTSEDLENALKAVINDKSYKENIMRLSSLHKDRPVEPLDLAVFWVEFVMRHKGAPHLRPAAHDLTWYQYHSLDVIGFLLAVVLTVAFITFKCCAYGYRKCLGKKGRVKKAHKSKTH

Liver microsome [8] = experiment: Drug metabolism in human liver microsomes assessed as 3-hydroxymorphinan formation measured per mg of microsomal protein; type: ADME
[9] = target: T4, UDP-glucuronosyltransferase 1A10 (Homo sapiens, UniProt Q9HAW8); experiment: Drug metabolism assessed as recombinat UGT1A10 (unknown origin) -mediated dextrophan-O-glucuronide formation; type: ADME
T4 sequence (Q9HAW8 whole entry): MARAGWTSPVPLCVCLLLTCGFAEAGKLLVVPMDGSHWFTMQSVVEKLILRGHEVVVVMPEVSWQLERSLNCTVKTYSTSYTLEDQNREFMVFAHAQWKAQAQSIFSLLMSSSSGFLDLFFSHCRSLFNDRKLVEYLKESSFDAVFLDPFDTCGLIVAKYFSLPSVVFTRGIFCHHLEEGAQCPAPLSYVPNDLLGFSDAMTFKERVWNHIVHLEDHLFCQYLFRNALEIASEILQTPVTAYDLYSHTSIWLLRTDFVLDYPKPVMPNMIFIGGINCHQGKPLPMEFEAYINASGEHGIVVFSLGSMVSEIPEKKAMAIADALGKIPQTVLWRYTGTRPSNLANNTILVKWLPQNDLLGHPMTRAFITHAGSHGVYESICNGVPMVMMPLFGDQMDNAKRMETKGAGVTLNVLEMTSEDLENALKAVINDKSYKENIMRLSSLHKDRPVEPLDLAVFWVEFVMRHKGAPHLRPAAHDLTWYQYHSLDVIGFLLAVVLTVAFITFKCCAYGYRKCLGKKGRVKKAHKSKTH

## CN1CC[C@@]23CCCC[C@@H]2[C@@H]1Cc1ccc(O)cc13 [DEXTRORPHAN]
Liver microsome [1]
  CLH: 0.88 µL/min/mg
[2]
  Drug metabolism: metabolite_detected
Liver microsome [3]
  Fu: 0.55
Liver microsome [4]
  CLH: 11 µL/min/mg
Liver microsome [5]
  CL free: 2.9 µL/min/mg
[6]
  Drug metabolism: metabolite_detected
[7]
  Drug metabolism: metabolite_not_detected
Liver microsome [8]
  Vmax: 0.8 nmol/min
[9]
  Drug metabolism: metabolite_not_detected
